# In US10039843B2, “Paramagnetic solid lipid nanoparticles (pSLNs) containing metal amphiphilic complexes for MRI” (BRACCO IMAGING S.P.A., priority 2012, dated 2018):
# Test: Relaxivity values of some known compounds for MRI (Table I)
# Type: physicochemical
# Details: 0.47 T, 25° C., pH 7; for r1p HSA 4%: HSA 4% in NaCl 0.9%
# From the text: As mentioned above, pSLNs usually show very high relaxivity in physiological medium, higher than values typically found in non-derivatized hydrophilic gadolinium complexes, in particular when formulated in SLNs, as better detailed in the experimental part for some representative compounds. As an example, relaxivity values for some Gd(III)complexes are indicated below, where values measured in physiologic conditions refer to those in obtained HSA 4% in NaCl 0.9%.
Structure (SMILES),r1p HSA 4% [mM⁻¹ s⁻¹],r1p Human plasma (HP) [mM⁻¹ s⁻¹],r1p Water [mM⁻¹ s⁻¹]
"O=C([O-])CN1CCN(CC(=O)[O-])CCN([C@H](CO)[C@H](O)CO)CCN(CC(=O)[O-])CC1.[Gd+3] (racemic) [Gd-BT-DO3A, Gadobutrol]",4.31,5.76,3.75
"C[NH2+]C[C@H](O)[C@@H](O)[C@H](O)[C@H](O)CO.O=C([O-])CN1CCN(CC(=O)[O-])CCN(CC(=O)[O-])CCN(CC(=O)[O-])CC1.[Gd+3] [Gd-DOTA, Gadoterato meglumine [[1,4,7,10-tetraazacyclododecane-1,4,7,10-tetraacetate (4-)] gadolinate (1-)] meglumine]",4.11,4.51,3.61
"CC(O)CN1CCN(CC(=O)[O-])CCN(CC(=O)[O-])CCN(CC(=O)[O-])CC1.[Gd+3] (stereo not drawn) [Gd-HP-DO3A, Gadoteridol[10-(2-hydroxyprop-1-yl) -1,4,7,10-tetraazacyclododecane-1,4,7-triacetate(3-)] gadolinium]",3.85,4.80,3.32
